Results on 9 molecules are retold here after patent US5444042A, “Method of treatment of neurodegeneration with calpain inhibitors” (Cortex Pharmaceuticals, priority 1994, dated 1995).

Molecules are shown by their SMILES.

For one series, the system named is Calpain within platelets. As to the kind of experiment: Platelet membrane permeation assay, spectrin proteolysis (Examples 4A, 4B). The series is classed as cell-based, rat. The conditions noted are these: for inhibition of Calpain within platelets / platelet assay, semi-quantitative: 100 μM; for inhibition of Calpain within platelets: A23187 1 μM; for IC50: concentration at which 50% of the Calpain activation present in controls occurred. The protocol: Platelets were isolated by a modification of the method of Ferrell and Martin, J Biol. Chem., 264:20723-20729 (1989), the disclosure of which is hereby incorporated by reference. Blood (15-20 ml) was drawn from male Sprague-Dawley rats into 100 mM EDTA-citrate containing 10 units heparin, and centrifuged 30 minutes at 1600 rpm at room temperature. The plasma was resuspended in 15 ml buffer 1 (136 mM NaCl, 2.7 mM KCl, 0.42 mM NaH2 PO4, 12 mM NaHCO3, 2 mM MgCl2, 2 mg/ml BSA (Sigma), 5.6 mM glucose, 22 mM Na3 Citrate pH 6.5) and platelets were isolated at 2200 rpm at room temperature of 25 minutes. Platelets were resuspended to 10^7 cells/ml in buffer 2 (136 mM NaCl, 2.7 mM KCl, 0.42 NaH2 PO4, 12 mM NaHCO3, 2 mM MgCl, 1 mg/ml BSA, 5.6 mM glucose, 20 mM HEPES pH 7.4) and allowed to "rest" for a minimum of 10 minutes at room temperature before use.
Platelets were incubated for 5 minutes in the presence of inhibitor. In order to provide sufficient intracellular calcium to activate Calpain, the calcium ionophore A23187 was added to a final concentration of 1 μM. After a further 5 minute incubation, the platelets were harvested by centrifugation (1 min 10,000×g) and resuspended in 10% sodium dodecyl sulfate, 10 mM Tris pH=8.0, 5% β-mercaptoethanol, 0.02% bromophenol blue, and heated to 95° C. for 5 min. Samples were subjected to SDS-PAGE on 6% mini gels and transferred to nitrocellulose (Schleicher and Schuell BAS3) for 2 hours at 100 mA/gel in an LKB Novablot. Filters were blocked for 10 minutes in 0.25% gelatin, 1% BSA, 0.25% Triton X100, 0.9% NaCl, 10 mM Tris-Cl pH 7.5, incubated overnight in the same solution containing antibody to rat spectrin, washed 3×10 minutes with 10 mM Tris-Cl pH 7.5, 0.5 % Triton X100, incubated 4 hours in wash buffer plus alkaline phosphatase conjugated goat anti-rabbit antibody (Biorad), and washed as above. Filters were developed using the Biorad AP conjugate substrate kit. Spectrin immunoreactivity on the filters was quantitated by densitometry.

The target of the next series is T1, Papain (Carica papaya, UniProt P00784).
T1 sequence (P00784 134-345): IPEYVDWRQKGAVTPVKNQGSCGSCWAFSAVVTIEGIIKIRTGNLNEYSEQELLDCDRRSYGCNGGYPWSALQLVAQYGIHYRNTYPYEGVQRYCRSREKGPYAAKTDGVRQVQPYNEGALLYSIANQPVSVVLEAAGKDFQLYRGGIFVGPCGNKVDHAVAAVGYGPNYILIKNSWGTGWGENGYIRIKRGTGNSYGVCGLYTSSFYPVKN
In words: Papain inhibition, Ki by Dixon plot (Table PKC1). The series is classed as biochemical. The conditions noted are these: 0.05M Tris-HCl pH 7.5, 2 mM EDTA, 5 mM cysteine, 1% DMSO, 25° C., substrate Nα-Benzoyl-Arg-AMC; read-out: Ki P (Papain). Here is the method:
(§1) Various concentrations of inhibitors in dimethylsulfoxide (DMSO) were added to the assay mixture, which contained buffer and substrate. The reaction was started by the addition of the enzyme and the hydrolysis rates were followed spectrophotometrically or fluorimetrically. 88 mM KH2 PO4, 12 mM Na2 HPO4, 1.33 mM EDTA, 2.7 mM cysteine, pH 6.0 was used as a buffer for cathepsin B; and 20 mM Hepes, 10 mM CaCl2, 10 mM β-mercaptoethanol, pH 7.2 buffer was utilized for calpain I and calpain II.
(§2) All peptide thioester hydrolysis rates were measured with assay mixtures containing 4,4'-dithiodipyridine [e324=19800 M-1 cm-1; Grasetti & Murray, Arch. Biochem. Biophys. 119, pp 41-49 (1967)]. Papain was assayed with Bz-Arg-AMC or Bz-Arg-NA [Kanaoka et al., Chem. Pharm. Bull. 25, 3126-3128 (1977)], and the AMC (7-amino-4-methylcoumarin) release was followed fluorimetrically (excitation at 380 nm, and emission at 460 nm). Cathepsin B was assayed with Z-Arg-Arg-AFC [Barrett and Kirschke, Methods Enzymol. 80, 535-561 (1981)], and the AFC (7-amino-4-trifluoromethylcoumarin) release was followed fluorimetrically (excitation at 400 nm, and emission at 505 nm). Calpain I from human erythrocytes and calpain II from rabbit were assayed using Suc-Leu-Tyr-AMC [Sasaki et al., J. Biol. Chem. 259, 12489-12494 (1984), hereby incorporated by reference], and the AMC (7-amino-4-methylcoumarin) release was followed fluorimetrically (excitation at 380 nm, and emission at 460 nm). Enzymatic hydrolysis rates were measured at various substrate and inhibitor concentrations, and Ki values were determined by Dixon plot.
The inhibition constants for papain shown in Table PKC1 were measured in 0.05M Tris-HCl, pH 7.5 buffer, containing 2 mM EDTA, 5 mM cysteine (freshly prepared), 1% DMSO, at 25° C., using N^α -Benzoyl-Arg-AMC as a substrate, except that those values of inhibition constants for papain marked with an "e" in Table PKC1 were measured in 50 mM Tris-HCl, pH 7.5 buffer, containing 20 mM EDTA, 5 mM cysteine, 9% DMSO, at 25° C., using N^α -Benzoyl-Arg-NA as a substrate.

The target of series [1] is T2, Cathepsin B (Bos taurus, UniProt P07688). As to the kind of experiment: Cathepsin B inhibition, Z-Arg-Arg-AFC (Table PKC1). The series is classed as biochemical. As to conditions: pH 6.0 phosphate buffer, substrate Z-Arg-Arg-AFC; read-out: Ki CB (Cathepsin B). The protocol:
as §1, §2

The target in another series is Chym (Bos taurus, UniProt P00766). In words: Chym KI (Table 1B(ii)). The series is classed as biochemical. An excerpt:
(§3) We tested the ability of an additional group of Peptide Keto-Compounds to inhibit several proteases in order to evaluate their specificity for Calpain.

The target in another series is Calpain II. In words: Calpain II KI (Table 1B(ii)). Format: biochemical.
Source text: as §3

Series [2] has as its target T2, Cathepsin B. In words: Cathepsin B KI (Table 1B(ii)). The series is classed as biochemical. As to conditions: read-out: KI CathB.
Source text: as §3

In the next series the target is PP Elastase (Sus scrofa, UniProt P00772). In words: PP Elastase KI (Table 1B(ii)). Format: biochemical.
Source text: as §3

Another series has as its target T3, Calpain I (Homo sapiens, UniProt P07384).
T3 sequence (P07384 1-714): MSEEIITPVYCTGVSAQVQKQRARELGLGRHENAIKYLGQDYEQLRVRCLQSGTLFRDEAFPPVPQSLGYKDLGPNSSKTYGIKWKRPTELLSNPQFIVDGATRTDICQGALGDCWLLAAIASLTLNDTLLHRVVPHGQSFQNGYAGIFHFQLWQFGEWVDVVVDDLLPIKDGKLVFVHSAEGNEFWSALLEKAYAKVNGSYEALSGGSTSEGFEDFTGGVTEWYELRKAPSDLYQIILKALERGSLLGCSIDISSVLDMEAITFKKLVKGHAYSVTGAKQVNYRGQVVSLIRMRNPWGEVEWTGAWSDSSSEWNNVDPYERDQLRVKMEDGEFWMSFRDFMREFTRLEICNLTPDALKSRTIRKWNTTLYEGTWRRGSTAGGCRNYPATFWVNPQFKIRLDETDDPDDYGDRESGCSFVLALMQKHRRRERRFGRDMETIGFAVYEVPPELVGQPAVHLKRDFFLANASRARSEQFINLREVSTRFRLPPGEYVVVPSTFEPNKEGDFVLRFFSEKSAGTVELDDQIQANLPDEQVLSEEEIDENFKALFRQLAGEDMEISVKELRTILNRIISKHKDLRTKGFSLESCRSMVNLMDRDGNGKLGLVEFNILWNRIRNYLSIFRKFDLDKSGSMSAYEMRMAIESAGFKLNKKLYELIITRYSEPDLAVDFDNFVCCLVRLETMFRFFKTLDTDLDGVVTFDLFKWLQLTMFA
T3 sequence (P04632 1-268 partner): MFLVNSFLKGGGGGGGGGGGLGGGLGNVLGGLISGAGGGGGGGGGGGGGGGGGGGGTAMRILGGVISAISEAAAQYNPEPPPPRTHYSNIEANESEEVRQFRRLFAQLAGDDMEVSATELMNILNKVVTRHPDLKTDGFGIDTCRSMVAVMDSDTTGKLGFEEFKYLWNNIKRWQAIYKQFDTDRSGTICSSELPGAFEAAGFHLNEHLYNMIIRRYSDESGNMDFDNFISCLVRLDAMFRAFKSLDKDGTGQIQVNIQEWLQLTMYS
As to the kind of experiment: Calpain I KI (Table 1B(ii)). Format: biochemical. As to conditions: Table 1B(ii).
Source text: as §3

A further series can be described thus: Stability in plasma. The conditions noted are these: unit assumed. Format: in vitro ADME. An excerpt: We determined the haft-life of several Peptide Keto-Compounds in both plasma and liver homogenates.

Sequence of PP Elastase (P00772 27-266): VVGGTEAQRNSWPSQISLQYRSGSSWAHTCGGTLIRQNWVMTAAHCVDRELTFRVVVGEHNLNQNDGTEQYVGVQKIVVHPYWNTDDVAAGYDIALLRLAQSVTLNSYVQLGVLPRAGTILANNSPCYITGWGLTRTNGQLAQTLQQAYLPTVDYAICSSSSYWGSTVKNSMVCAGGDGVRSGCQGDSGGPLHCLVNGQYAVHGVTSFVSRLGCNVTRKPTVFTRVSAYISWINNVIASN

Regarding `CCC(NC(=O)[C@H](C)NC(=O)[C@H](C)NC(=O)OCc1ccccc1)C(=O)C(=O)OCc1ccccc1` (mixture of isomers) [Z-Ala-Ala-DL-Abu-COOBzl, Z-Ala-Ala-DL-Abu-CO2 Bzl], the “inhibition of Calpain within platelets” value in the series with Calpain within platelets is reported as “significant inhibition”. Also, the values for the inhibition constant Ki at Papain and at Cathepsin B [1] were 30 µM and 60 µM, respectively.
For the molecule `CC[C@H](NC(=O)[C@H](CC(C)C)NC(=O)OCc1ccccc1)C(=O)C(=O)OCc1ccccc1` [Z-Leu-Abu-COOBz, Z-Leu-Abu-CO2 Bzl], the inhibition constant Ki on Chym was 40 µM; at Calpain II, 0.47 µM; at Cathepsin B [2], 4 µM; at PP Elastase, more than 100 µM; on Calpain I it was 9.5 µM. In addition, in the series with Calpain within platelets, the “inhibition of Calpain within platelets” value is “significant inhibition”. Also, in the series with Calpain within platelets, the “platelet assay, semi-quantitative” value was “++”.
On to `CCOC(=O)C(=O)C(Cc1ccccc1)NC(=O)C(Cc1ccccc1)NC(=O)OCc1ccccc1` (racemic) [Z-Phe-DL-Phe-COOEt], for which the inhibition constant (Ki) at Papain came out at 1.8 µM; on Cathepsin B [1] it was 0.1 µM.
As for `CCOC(=O)C(=O)C(CC)NC(=O)C(CC(C)C)NC(=O)C(CC(C)C)NS(=O)(=O)c1ccc2ccccc2c1` (stereo not drawn) [2-NapSO2 -Leu-Leu-Abu-COOEt], the inhibition constant Ki is 35 µM on Chym; 1.4 µM on Calpain II; 25 µM on Cathepsin B [2]; 47 µM on PP Elastase; 16 µM on Calpain I. Also, the “inhibition of Calpain within platelets” value in the series with Calpain within platelets is on record as “significant inhibition”. The molecule further had a half-inhibitory concentration (IC50) in the series on Calpain within platelets of 100 µM. The t1/2 plasma in the series “Stability in plasma” was more than 60 min.
With `CCOC(=O)C(=O)[C@H](CC)NC(=O)[C@H](CC(C)C)NC(=O)[C@H](CC(C)C)NS(=O)(=O)c1ccc(C)cc1` [Tos-Leu-Leu-Abu-COOEt], the inhibitory constant (Ki) on Chym turned out to be 25 µM; at Cathepsin B [2], 69 µM; on PP Elastase, 28 µM; at Calpain I, 33 µM. Moreover, the 50% inhibitory concentration (IC50) with Calpain within platelets stood at 30 µM. Further, the t1/2 plasma in the series “Stability in plasma” amounted to 30 min.
Take `CCOC(=O)C(=O)C(C)NC(=O)[C@@H]1CCCN1C(=O)[C@H](C)NC(=O)OCc1ccccc1` (mixture of isomers) [Z-Ala-Pro-DL-Ala-COOEt, Z-Ala-Pro-DL-Ala-CO2 Et]: the results for the Ki at Papain and at Cathepsin B [1] were 26 µM and 66 µM, respectively.
The corresponding values for `CCOC(=O)C(=O)C(C)NC(=O)C(Cc1ccccc1)NC(=O)OCc1ccccc1` (racemic) [Z-Phe-DL-Ala-COOEt] are 3.6 µM and 3.2 µM.
The matching figures for `CCCC(NC(=O)C(C)NC(=O)C(C)NC(=O)OCc1ccccc1)C(=O)C(=O)OCC` (racemic) [Z-Ala-Ala-DL-Nva-COOEt, Z-Ala-Ala-DL-Nva-CO2 Et]: 30 µM and 0.1 µM.
In the case of `CCCCOC(=O)C(=O)[C@H](Cc1ccccc1)NC(=O)[C@H](CC(C)C)NC(=O)OCc1ccccc1` [Z-Leu-Phe-COOnBu, Z-Leu-Phe-CO2 Bu], the Ki on Chym is 0.15 µM; at Calpain II, 1.1 µM; on Cathepsin B [2], 15 µM; at PP Elastase, more than 100 µM; on Calpain I, 5 µM. Besides, in the series on Calpain within platelets, the “inhibition of Calpain within platelets” value was “significant inhibition”. Besides, in the series on Calpain within platelets, the “platelet assay, semi-quantitative” value is on record as “+++”. Moreover, the t1/2 plasma in the series “Stability in plasma” came to 7.7 min.

In general, Ki refers to the equilibrium dissociation constant of an inhibitor or competing ligand from its target. Usually IC50 stands for the midpoint of a concentration-inhibition curve. Low readings indicate greater potency in that assay, high ones weaker potency in that assay.
